Test results reported in PMC3479967 (Evidence-based Complementary and Alternative Medicine : eCAM, 2012).

Target: T1, UGT2B17 (Homo sapiens, UniProt O75795)
T1 sequence (O75795 24-530): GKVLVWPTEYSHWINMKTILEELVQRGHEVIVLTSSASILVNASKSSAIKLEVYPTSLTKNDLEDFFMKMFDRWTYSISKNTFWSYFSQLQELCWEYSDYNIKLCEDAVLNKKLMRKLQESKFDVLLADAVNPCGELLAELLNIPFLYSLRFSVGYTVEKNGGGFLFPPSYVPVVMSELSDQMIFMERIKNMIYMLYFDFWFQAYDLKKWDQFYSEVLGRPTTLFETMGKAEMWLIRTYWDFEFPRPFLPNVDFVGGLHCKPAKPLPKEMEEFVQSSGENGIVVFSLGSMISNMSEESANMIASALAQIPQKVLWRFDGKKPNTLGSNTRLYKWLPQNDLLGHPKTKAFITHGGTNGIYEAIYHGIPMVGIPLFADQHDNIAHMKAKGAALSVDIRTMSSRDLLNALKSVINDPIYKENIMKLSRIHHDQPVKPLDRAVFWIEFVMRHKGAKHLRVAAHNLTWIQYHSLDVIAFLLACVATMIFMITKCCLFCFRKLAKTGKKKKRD
Experiment: Inhibition of recombinant UGT2B17 activity (4-MU glucuronidation)
Description: A panel of recombinant human UGT supersomes (UGT1A1, UGT1A3, UGT1A4, UGT1A6, UGT1A7, UGT1A8, UGT1A9, UGT1A10, UGT2B4, UGT2B7, UGT2B15, and UGT2B17) expressed in baculovirus-infected insect cells were purchased from BD Gentest Corp. (Woburn, MA, USA).
4-MU, a nonselective substrate of UGTs, was used as probe substrate for all UGTs except UGT1A4. Incubations with each individual enzyme were conducted using conditions previously described. There was a 5 min preincubation step at 37°C before the reaction was started by addition of UDPGA. The incubation mixtures were then centrifuged at 20,500 ×g for 15 min to obtain the supernatant. Aliquots (20 μL) were then analyzed by HPLC. The HPLC system (SHIMADZU, Kyoto, Japan) consisted of an SCL-10A system controller, two LC-10AT pumps, a SIL-10A auto injector, and a SPD-10AVP UV detector. Chromatographic separation was achieved using a Kromasil ODS column (4.6 × 150 mm I.D., 5 μm particle size) at a flow rate of 1 mL/min and UV detection at 316 nm. The mobile phase consisted of 10 mM KH2PO4, pH 2.7 (A) and acetonitrile (B). The following gradient was applied at a flow rate of 1 mL/min: 0–4 min 80% A and 20% B, 4.1–8 min 50% A and 50% B, 8.1–12 min, 30% A and 70% B. All experiments were performed in two independent experiments in duplicate.
A typical incubation mixture contained recombinant human UGTs, 5 mM MgCl2, 5 mM UDPGA, 50 μg/mg protein alamethicin, 50 mM Tris-HCl buffer (pH 7.4), and various probe substrates of UGTs in the absence or presence of different concentrations of inhibitors. […] The final concentration of DMSO in the incubation system was 1% (v/v). […]
Inhibition data from experiments were graphically represented by Dixon plots. K i values were calculated by nonlinear regression using the equations for competitive inhibition (1), noncompetitive inhibition (2), or mixed inhibition (3), [22] […] The type of inhibition was determined from the enzyme inhibition models. Goodness of fit to kinetic and inhibition models was assessed from the F statistic, r ^2 values, parameter standard error estimates, and 95% confidence intervals. […]

IC50 [µM] | SMILES
> 100 | COc1ccc(-c2oc3c(CC=C(C)C)c(O)cc(O)c3c(=O)c2O)cc1 [Icaritin]
> 100 | COc1ccc(-c2oc3c(CC=C(C)C)c(O[C@@H]4O[C@H](CO)[C@@H](O)[C@H](O)[C@H]4O)cc(O)c3c(=O)c2O)cc1 [Icariside I]

SMILES | IC50 [µM]
COc1ccc(-c2oc3c(CC=C(C)C)c(O[C@@H]4O[C@H](CO)[C@@H](O)[C@H](O)[C@H]4O)cc(O)c3c(=O)c2O[C@@H]2O[C@@H](C)[C@H](O)[C@@H](O)[C@H]2O)cc1 [Icariin] | > 100
